The source of these data is article PMC9851200, “Multiparameter phenotypic screening for endogenous TFEB and TFE3 translocation identifies novel chemical series modulating lysosome function” (Autophagy, 2022).

Read-outs that look alike come from different tables or passages of the source.

Common to all, as to test: biochemical
Common to all, as to format: binding

The target in test [1] is T1, cellular kinases of SH-SY5Y cells (Homo sapiens, UniProt P52564).
T1 sequence (P52564 1-334): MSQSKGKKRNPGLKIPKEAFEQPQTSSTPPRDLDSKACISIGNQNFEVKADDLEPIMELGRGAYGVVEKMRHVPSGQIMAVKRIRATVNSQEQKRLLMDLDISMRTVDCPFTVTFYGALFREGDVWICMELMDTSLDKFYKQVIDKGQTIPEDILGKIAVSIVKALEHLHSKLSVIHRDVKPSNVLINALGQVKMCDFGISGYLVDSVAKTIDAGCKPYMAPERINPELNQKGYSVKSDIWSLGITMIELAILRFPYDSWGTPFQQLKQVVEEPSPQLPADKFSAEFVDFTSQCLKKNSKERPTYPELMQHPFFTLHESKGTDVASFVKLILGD
Particulars: 2µM, SH-SY5Y cells; for inhibition at 2 µM: read-out: KiNativ in-cell binding, % Inhibition, MAP2K6. From the text:
(§1) As KINOMEscan is an in vitro assay, and as different cell types have variable kinase expression profiles we sought to determine the kinase binding profile in our SH-SY5Y TFEB-relocalization cell model. […] Bound kinases were pulled down and analyzed by mass spectrometry to determine the in situ kinase binding profile for each compound.

Test [2] has as its target cellular kinases of SH-SY5Y cells (Homo sapiens, UniProt Q16512). Particulars: 2µM; SH-SY5Y cells; Labeling Site Lys1; VLLSEFRPSGELFAIKALK; read-out: KiNativ in-cell binding, % Inhibition, PKN1.
Excerpt: as §1

For test [3], the target named is cellular kinases of SH-SY5Y cells (Homo sapiens, UniProt Q99759). Particulars: 2µM; SH-SY5Y cells; Labeling Site Lys1; ELASKQVQFDPDSPETSKEVSALECEIQLLK; read-out: KiNativ in-cell binding, % Inhibition, MAP3K3.
Excerpt: as §1

For test [4], the target named is cellular kinases of SH-SY5Y cells (Homo sapiens, UniProt Q15349). To be noted: 2µM; SH-SY5Y cells; labeling site Lys2; peptide DLKPENILLDEEGHIKITDFGLSK
Chain of cellular kinases of SH-SY5Y cells (Homo sapiens, UniProt Q15349) (Q15349 whole entry): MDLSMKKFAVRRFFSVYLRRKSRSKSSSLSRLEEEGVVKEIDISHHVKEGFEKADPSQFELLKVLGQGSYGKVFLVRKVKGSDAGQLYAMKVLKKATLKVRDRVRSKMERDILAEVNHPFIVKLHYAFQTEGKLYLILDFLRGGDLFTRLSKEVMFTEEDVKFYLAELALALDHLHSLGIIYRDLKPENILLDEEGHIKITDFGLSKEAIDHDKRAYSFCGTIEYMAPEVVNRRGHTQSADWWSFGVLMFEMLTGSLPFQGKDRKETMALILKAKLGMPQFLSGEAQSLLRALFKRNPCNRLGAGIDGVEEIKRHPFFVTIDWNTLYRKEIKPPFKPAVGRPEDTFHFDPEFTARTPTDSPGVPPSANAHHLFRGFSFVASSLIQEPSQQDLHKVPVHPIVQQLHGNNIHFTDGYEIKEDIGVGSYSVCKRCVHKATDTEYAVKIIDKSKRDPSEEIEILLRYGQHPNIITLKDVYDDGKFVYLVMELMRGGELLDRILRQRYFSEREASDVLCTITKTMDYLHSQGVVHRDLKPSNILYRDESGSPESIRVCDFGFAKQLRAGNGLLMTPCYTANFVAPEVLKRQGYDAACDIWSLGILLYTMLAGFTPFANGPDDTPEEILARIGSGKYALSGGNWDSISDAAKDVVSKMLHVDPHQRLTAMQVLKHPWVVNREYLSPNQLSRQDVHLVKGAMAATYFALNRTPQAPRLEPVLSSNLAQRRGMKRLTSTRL
Excerpt: as §1

Test [5] addresses cellular kinases of SH-SY5Y cells (Homo sapiens, UniProt P11802). To be noted: 2µM; SH-SY5Y cells; Labeling Site Lys2; DLKPENILVTSGGTVK; read-out: KiNativ in-cell binding, % Inhibition, CDK4.
Excerpt: as §1

The target in test [6] is cellular kinases of SH-SY5Y cells (Homo sapiens, UniProt P50750). Particulars: 2µM, SH-SY5Y cells, read-out: KiNativ in-cell binding, % Inhibition, CDK9.
Chain of cellular kinases of SH-SY5Y cells (Homo sapiens, UniProt P50750) (P50750 whole entry): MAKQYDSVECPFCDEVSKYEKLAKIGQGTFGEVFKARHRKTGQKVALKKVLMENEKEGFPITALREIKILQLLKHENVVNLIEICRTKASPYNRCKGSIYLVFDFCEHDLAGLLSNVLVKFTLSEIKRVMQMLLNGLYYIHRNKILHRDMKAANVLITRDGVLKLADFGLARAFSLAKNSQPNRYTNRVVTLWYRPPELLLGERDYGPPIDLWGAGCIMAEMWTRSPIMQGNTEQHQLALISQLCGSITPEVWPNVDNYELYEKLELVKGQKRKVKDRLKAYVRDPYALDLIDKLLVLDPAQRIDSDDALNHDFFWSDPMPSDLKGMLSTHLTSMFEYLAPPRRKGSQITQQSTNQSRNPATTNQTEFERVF
Excerpt: as §1

Test [7] concerns the target T2, cellular kinases of SH-SY5Y cells (Homo sapiens, UniProt Q9NRH2).
T2 construct: endogenous in cells; host or cells: SH-SY5Y
To be noted: 2µM, SH-SY5Y cells, read-out: KiNativ in-cell binding, % Inhibition, SNRK.
Excerpt: as §1

Test [8] has as its target cellular kinases of SH-SY5Y cells (Homo sapiens, UniProt P48736). To be noted: 2µM; SH-SY5Y cells; Labeling Site ATP; KKPLWLEFK; read-out: KiNativ in-cell binding, % Inhibition, PIK3CG.
Excerpt: as §1

The target of test [9] is T3, cellular kinases of SH-SY5Y cells (Homo sapiens, UniProt O96017).
T3 construct: endogenous in cells; host or cells: SH-SY5Y
T3 sequence (O96017 whole entry): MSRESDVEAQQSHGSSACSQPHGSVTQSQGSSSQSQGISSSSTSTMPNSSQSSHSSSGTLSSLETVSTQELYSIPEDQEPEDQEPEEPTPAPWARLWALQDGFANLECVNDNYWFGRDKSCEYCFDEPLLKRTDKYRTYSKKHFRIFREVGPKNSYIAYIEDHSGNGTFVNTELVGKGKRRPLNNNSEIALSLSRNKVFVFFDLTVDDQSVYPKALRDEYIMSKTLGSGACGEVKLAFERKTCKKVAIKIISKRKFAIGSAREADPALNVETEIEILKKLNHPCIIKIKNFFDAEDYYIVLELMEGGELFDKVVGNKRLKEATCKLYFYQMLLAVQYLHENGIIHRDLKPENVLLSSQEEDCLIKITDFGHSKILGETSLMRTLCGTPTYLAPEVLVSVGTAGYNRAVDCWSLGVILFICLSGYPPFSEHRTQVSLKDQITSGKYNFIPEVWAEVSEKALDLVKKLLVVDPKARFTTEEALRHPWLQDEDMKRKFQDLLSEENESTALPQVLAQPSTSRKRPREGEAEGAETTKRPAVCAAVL
To be noted: 2µM, SH-SY5Y cells, read-out: KiNativ in-cell binding, % Inhibition, CHEK2/CHK2.
Excerpt: as §1

The target of test [10] is T4, cellular kinases of SH-SY5Y cells (Homo sapiens, UniProt P78356).
T4 construct: endogenous in cells; host or cells: SH-SY5Y
T4 sequence (P78356 whole entry): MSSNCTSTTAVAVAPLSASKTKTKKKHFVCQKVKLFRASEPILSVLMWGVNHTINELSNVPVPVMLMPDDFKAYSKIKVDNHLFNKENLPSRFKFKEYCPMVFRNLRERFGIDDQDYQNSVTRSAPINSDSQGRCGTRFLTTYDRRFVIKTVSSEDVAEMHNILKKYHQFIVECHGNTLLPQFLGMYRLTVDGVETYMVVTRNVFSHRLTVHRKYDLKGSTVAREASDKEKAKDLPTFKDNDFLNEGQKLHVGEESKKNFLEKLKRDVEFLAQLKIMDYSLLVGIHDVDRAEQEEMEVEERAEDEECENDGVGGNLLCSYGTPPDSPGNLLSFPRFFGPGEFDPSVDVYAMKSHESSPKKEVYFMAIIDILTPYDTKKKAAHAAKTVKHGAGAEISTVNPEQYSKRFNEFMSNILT
To be noted: 2µM; SH-SY5Y cells; Labeling Site ATP; AKDLPTFKDNDFLNEGQK; read-out: KiNativ in-cell binding, % Inhibition, PIP4K2B.
Excerpt: as §1

Test [11] concerns the target cellular kinases of SH-SY5Y cells (Homo sapiens, UniProt P24941). Particulars: 2µM, SH-SY5Y cells.
Excerpt: as §1

In test [12] the target is cellular kinases of SH-SY5Y cells (Homo sapiens, UniProt Q00535). To be noted: 2µM, SH-SY5Y cells, read-out: KiNativ in-cell binding, % Inhibition, CDK5.
Chain of cellular kinases of SH-SY5Y cells (Homo sapiens, UniProt Q00535) (Q00535 whole entry): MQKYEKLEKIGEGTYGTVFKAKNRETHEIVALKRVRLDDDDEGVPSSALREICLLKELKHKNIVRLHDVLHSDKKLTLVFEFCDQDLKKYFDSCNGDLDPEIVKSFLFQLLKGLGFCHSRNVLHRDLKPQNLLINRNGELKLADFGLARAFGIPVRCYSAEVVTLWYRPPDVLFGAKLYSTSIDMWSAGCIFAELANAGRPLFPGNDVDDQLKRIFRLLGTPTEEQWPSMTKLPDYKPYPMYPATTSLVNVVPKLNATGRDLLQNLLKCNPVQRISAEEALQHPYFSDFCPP
Excerpt: as §1

The target in test [13] is T5, cellular kinases of SH-SY5Y cells (Homo sapiens, UniProt Q9UL54).
T5 construct: endogenous in cells; host or cells: SH-SY5Y
To be noted: 2µM; SH-SY5Y cells; Labeling Site Lys2; DVKAGNILLSEPGLVK; read-out: KiNativ in-cell binding, % Inhibition, TAOK2/TAO2.
Excerpt: as §1

Test [14] deals with T6, cellular kinases of SH-SY5Y cells (Homo sapiens, UniProt Q9Y572).
T6 construct: endogenous in cells; host or cells: SH-SY5Y
To be noted: 2µM; SH-SY5Y cells; Labeling Site Lys2; DLKPSNVLLDPELHVK; read-out: KiNativ in-cell binding, % Inhibition, RIPK3.
Excerpt: as §1

Test [15] concerns the target cellular kinases of SH-SY5Y cells (Homo sapiens, UniProt Q14012). To be noted: 2µM; SH-SY5Y cells; labeling site Lys1; peptide LVAIKCIAK
Excerpt: as §1

Test [16] has as its target T7, cellular kinases of SH-SY5Y cells (Homo sapiens, UniProt Q13188).
T7 construct: endogenous in cells; host or cells: SH-SY5Y
Particulars: 2µM; SH-SY5Y cells; Labeling Site Lys1; ESGQVVAIKQVPVESDLQEIIK; read-out: KiNativ in-cell binding, % Inhibition, STK3/MST2.
Excerpt: as §1

T2 sequence (Q9NRH2 whole entry): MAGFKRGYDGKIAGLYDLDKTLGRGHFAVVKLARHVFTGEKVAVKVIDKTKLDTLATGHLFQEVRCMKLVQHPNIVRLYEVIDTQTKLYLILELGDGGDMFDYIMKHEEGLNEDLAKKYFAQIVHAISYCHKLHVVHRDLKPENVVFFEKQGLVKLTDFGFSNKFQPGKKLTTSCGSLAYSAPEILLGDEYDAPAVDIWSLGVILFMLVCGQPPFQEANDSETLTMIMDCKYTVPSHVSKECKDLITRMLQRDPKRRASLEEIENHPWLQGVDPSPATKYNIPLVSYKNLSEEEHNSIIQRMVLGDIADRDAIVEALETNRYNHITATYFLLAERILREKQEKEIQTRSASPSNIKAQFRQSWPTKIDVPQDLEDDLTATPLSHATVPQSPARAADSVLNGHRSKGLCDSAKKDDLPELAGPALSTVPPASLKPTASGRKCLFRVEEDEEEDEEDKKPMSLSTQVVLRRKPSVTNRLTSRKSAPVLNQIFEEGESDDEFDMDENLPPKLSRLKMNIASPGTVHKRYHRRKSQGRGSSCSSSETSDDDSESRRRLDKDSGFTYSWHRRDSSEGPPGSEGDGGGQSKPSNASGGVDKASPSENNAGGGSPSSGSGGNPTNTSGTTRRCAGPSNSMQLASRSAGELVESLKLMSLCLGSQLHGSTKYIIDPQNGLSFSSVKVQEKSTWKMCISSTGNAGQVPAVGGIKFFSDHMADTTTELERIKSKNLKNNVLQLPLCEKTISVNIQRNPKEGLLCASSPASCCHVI
Chain of cellular kinases of SH-SY5Y cells (Homo sapiens, UniProt P48736) (P48736 whole entry): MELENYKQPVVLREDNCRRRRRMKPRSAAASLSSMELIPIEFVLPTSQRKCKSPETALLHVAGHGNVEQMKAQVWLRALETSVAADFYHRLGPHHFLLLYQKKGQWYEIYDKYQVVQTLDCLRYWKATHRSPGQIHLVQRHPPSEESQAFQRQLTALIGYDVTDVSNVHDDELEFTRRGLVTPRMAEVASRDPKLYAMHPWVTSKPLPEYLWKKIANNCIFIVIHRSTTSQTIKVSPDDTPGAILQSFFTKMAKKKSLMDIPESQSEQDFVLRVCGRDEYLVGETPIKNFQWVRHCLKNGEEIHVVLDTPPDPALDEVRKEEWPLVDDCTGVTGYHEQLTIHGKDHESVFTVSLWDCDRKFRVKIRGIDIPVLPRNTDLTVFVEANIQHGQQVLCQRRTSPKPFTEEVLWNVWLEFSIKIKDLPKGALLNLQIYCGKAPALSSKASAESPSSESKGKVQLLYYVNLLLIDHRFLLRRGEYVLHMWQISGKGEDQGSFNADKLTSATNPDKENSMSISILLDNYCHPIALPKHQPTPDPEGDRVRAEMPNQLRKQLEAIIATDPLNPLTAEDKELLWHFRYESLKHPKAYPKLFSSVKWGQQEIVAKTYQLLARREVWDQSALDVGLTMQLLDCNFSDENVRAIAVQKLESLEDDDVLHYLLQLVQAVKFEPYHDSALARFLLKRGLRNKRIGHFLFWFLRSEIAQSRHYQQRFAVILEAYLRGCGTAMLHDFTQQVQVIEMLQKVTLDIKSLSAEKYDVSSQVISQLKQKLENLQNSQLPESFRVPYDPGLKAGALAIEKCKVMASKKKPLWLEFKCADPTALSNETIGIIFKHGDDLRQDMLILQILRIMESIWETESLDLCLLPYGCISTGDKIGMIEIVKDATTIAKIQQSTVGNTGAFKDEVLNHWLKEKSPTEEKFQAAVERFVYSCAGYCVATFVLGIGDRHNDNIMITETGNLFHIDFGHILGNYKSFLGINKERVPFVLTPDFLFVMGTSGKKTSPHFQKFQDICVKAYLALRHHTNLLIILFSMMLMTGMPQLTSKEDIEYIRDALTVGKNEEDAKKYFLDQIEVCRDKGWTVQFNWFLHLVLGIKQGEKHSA
T7 sequence (Q13188 whole entry): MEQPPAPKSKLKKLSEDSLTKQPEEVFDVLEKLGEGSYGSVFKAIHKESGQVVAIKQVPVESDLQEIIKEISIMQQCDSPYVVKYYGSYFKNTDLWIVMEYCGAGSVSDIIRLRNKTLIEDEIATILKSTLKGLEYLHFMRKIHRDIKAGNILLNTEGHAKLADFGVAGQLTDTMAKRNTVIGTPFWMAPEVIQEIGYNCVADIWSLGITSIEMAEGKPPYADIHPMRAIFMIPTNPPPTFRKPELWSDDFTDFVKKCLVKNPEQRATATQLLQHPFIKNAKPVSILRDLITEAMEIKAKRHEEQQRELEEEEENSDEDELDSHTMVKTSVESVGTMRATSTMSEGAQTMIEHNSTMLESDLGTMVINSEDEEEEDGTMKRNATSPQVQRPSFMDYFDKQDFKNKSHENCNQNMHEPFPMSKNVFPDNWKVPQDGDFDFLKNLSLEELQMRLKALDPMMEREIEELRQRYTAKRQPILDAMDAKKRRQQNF
Chain of cellular kinases of SH-SY5Y cells (Homo sapiens, UniProt P11802) (P11802 whole entry): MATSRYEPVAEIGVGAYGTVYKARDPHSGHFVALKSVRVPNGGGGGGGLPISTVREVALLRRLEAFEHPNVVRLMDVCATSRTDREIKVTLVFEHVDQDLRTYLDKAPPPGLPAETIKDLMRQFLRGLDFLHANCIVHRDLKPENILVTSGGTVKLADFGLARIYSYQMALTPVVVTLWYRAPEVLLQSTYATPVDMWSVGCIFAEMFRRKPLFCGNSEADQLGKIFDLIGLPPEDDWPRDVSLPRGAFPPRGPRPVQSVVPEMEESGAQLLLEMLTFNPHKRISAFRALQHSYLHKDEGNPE

In the case of `Cc1cccc(-c2nc(Nc3ccc4ncsc4c3)c3ccccc3n2)n1` [NK140], the inhibition at 2 µM in test [1] (Labeling Site Activation Loop, MCDFGISGYLVDSVAKTIDAGCKPYMAPER) is -15.9%; in [1] (Labeling Site Lys1, HVPSGQIMAVKR), 15.4%; in [2], 3%; in test [3], 12.5%; in test [5], -19.8%; in test [6] (Labeling Site ATP Loop, IGQGTFGEVFKAR) it was 2.1%. Moreover, the inhibition at 2 µM in test [6] (Labeling Site Lys2, DMKAANVLITR) was -6%; in test [7] (Labeling Site Lys1, VAVKVIDK), 37.3%; in [7] (Labeling Site Lys2, DLKPENVVFFEK), 36.3%; in test [8], 27.6%; in test [9] (Labeling Site Lys1, VAIKIISK), 7.7%; in [9] (Labeling Site Lys2, DLKPENVLLSSQEEDCLIK) it was 15.3%. Further, the inhibition at 2 µM is 27.3% in test [10]; 21.6% in test [11] (Labeling Site Lys1, LTGEVVALKK, read-out: KiNativ in-cell binding, % Inhibition, CDK2); -44.9% in test [12] (Labeling Site Lys1, NRETHEIVALKR); -39% in test [12] (Labeling Site Lys2, DLKPQNLLINR); 23.9% in test [13]; 26.1% in [14]. Also, in test [16], the inhibition at 2 µM stood at 31.6%. Besides, the “KiNativ in-cell binding, MAP2K6” value in test [1] (labeling site Lys2, peptide DVKPSNVLINALGQVK) is 17.8. The “KiNativ in-cell binding, RSK3 domain1” value in test [4] is on record as -68.0. The “KiNativ in-cell binding, CDK2” value in [11] (labeling site Lys2, peptide DLKPQNLLINTEGAIK) is listed as 6.0. Also, the “KiNativ in-cell binding, CaMK1” value in test [15] is on record as -56.2.
